“Also recorded” adds a separate entry of the source.
Legend:
[1] = Solubility in DMSO for in vitro tests; type: physicochemical; settings: DMSO used for the in vitro tests
Procedure: All tested compounds were dissolved in dimethyl sulfoxide (DMSO). […] To assess the anticancer activity of compounds, we tested human hepatocellular carcinoma (HCC), medulloblastoma (MB), and glioblastoma (GBM) cell lines. Further, to compare the effects of selected compounds on nonmalignant primary cells, we used primary human umbilical vein endothelial cells (HUVEC).
We planned to use compounds 8 and 9 as references in the current study. […] In our further studies, we plan to compare activities of all compounds using ethanol as the solvent.

human colon cancer HT-29 = tested on: human colon cancer HT-29; design: method as in doi:10.1016/j.tetasy.2016.06.009; settings: colon cancer line; cited from earlier work
DAOY cells = test: Neutral red cell viability assay, DAOY; type: cell-based, human; settings: for reduction of cell viability, DAOY: 50 µM, 24 h, first screening; for IC50: Homo sapiens, Daoy, 24 h treatment, neutral red, read-out: LD50 DAOY (MB)
Procedure: (§1) The human hepatocellular carcinoma (HCC) cell line HUH7 was purchased from ATCC (LGC standards GmbH, Wesel, Germany). The Austrian human HCC cell line AKH12 has been well characterized and was kindly provided by Prof. Bettina Grasl-Kraupp. HUH7 cells were cultured in Dulbecco’s modified Eagle’s medium (Thermo Fisher Scientific, Waltham, MA, USA) containing 10% heat-inactivated fetal bovine serum (FBS) (Sigma-Aldrich, St. Louis, MO, USA), 1% penicillin-streptomycin (10,000 U/mL) (Thermo Fisher Scientific, Waltham, MA, USA), and 1% minimum essential medium nonessential amino acids (100x) (Thermo Fisher Scientific, Waltham, MA, USA). AKH12 cells were cultured in RPMI1640 medium (Sigma-Aldrich, St. Louis, MO, USA) containing 10% heat-inactivated FBS. DAOY and D283Med (short D283) medulloblastoma (MB) cells were purchased from ATCC (LGC standards GmbH, Wesel, Germany). D425Med (short D425) and UW228-2 were provided by Thomas Ströbel from the Institute of Neurology Medical University of Vienna. The cells were cultured in Dulbecco’s modified Eagle’s medium (Sigma-Aldrich, St. Louis, MO, USA) containing 10% FBS (Sigma-Aldrich, St. Louis, MO, USA), 2% L-Glutamine (Sigma-Aldrich, St. Louis, MO, USA), and 0.2% Normocin (Sigma-Aldrich, St. Louis, MO, USA). U-251 MG (short U251) glioblastoma (GBM) cell line was purchased from Sigma-Aldrich and cultured in Dulbecco’s modified Eagle’s medium (Sigma-Aldrich, St. Louis, MO, USA) containing 10% FBS (Sigma-Aldrich, St. Louis, MO, USA), 2% L-Glutamine (Sigma-Aldrich, St. Louis, MO, USA), and 0.2% Normocin (Sigma-Aldrich, St. Louis, Missouri, USA). Human umbilical vein endothelial cells (HUVECs) were provided by Brigitte Winter from the Department of Surgery Medical University of Vienna and were grown in endothelial cell growth medium-2 BulletKitTM (Lonza, Basel, Switzerland) under standard tissue culture conditions. All cells were incubated at 37 °C in a 5% CO2 atmosphere and regularly checked for mycoplasma contamination.
(§2) Cell viability was determined using a neutral red assay, as previously described. The cells were placed in 24-well plates and grown to reach 70–80% confluency prior to treatment. After treatment for 24 h, cells were incubated with neutral red at a concentration of 50 µg/mL in serum-free medium for 2 h at 37 °C. Cells were then washed 2x and incubated with 1% acetic acid in 70% ethanol. The dye concentration was measured photometrically at 562 nm. The percentage of survival was calculated considering DMSO-treated (indicated as 0 µM concentration) cells as 100% control.
(§3) LD50 was defined as the amount of a toxic agent required to eliminate 50% of the cell population. The LD50 was calculated in each experiment from the respective dose–response curve. All experiments were performed in triplicate wells.

D425 cells = test: Cell viability assay (suspension cell line), MTT/CellTiter Blue, D425; type: cell-based, human; settings: for reduction of cell viability, D425: 50 µM, 24 h, first screening; for IC50: Homo sapiens, 24 h treatment, suspension cell assay, read-out: LD50 D425 (MB); for HUVEC/D425 LD50 Fold Change: ratio of LD50 HUVEC to LD50 D425
Procedure: as §1, §3
(§4) One day before treatment, 2 × 10^4 of D425Med or HUVEC cells were seeded into 24-well plates and incubated at 37 °C in a humidified atmosphere containing 5% CO2.The cells were treated with different compounds for 24 h. A […] assay using the CellTiter Blue reagent (Promega, Fitchburg, Wisconsin, USA) was performed according to the manufacturer’s protocol. Experiments were performed in triplicate and repeated three times. The percentage of survival was calculated as the ratio using DMSO-treated (indicated as 0 µM concentration) cells as 100% control.

U251 cells = test: Neutral red cell viability assay, U251; type: cell-based, human; settings: for decrease of cell viability, U251: 50 µM, 24 h, first screening; for IC50: Homo sapiens, U-251, 24 h treatment, neutral red, read-out: LD50 U251 (GBM)
Procedure: as §1, §2, §3

HUVEC cells [2] = test: Cell viability assay MTT/CellTiter Blue, HUVEC (Table 2); type: cell-based; settings: Table 2, nonmalignant primary cells, 24 h, assay as for D425
Procedure: as §1, §3, §4

HUVEC cells [3] = test: Neutral red cell viability assay, HUVEC (Table 1); type: cell-based; settings: Table 1, nonmalignant primary cells, 24 h
Procedure: as §1, §2, §3

AKH12 cells = test: Neutral red cell viability assay, AKH12; type: cell-based, human; settings: for reduction of cell viability, AKH12: 50 µM, 24 h, first screening; for IC50: Homo sapiens, 24 h treatment, neutral red, read-out: LD50 AKH12 (HCC)
Procedure: as §1, §2, §3

HUH7 cells = test: Neutral red cell viability assay, HUH7; type: cell-based, human; settings: Homo sapiens, Huh-7; 24 h treatment, neutral red; read-out: LD50 HUH7 (HCC)
Procedure: as §1, §2, §3

UW228-2 cells = test: Neutral red cell viability assay, UW228-2; type: cell-based, human; settings: for reduction of cell viability, UW228-2: 50 µM, 24 h, first screening; for IC50: Homo sapiens, UW228-2, 24 h treatment, neutral red, read-out: LD50 UW228-2 (MB)
Procedure: as §1, §2, §3

D283 cells = test: Neutral red cell viability assay, D283; type: cell-based, human; settings: for reduction of cell viability, D283: 50 µM, 24 h, first screening; for IC50: Homo sapiens, D283, 24 h treatment, read-out: LD50 D283 (MB)
Procedure: as §1, §2, §3

Compound	solubility in DMSO [1]	IC50 (human colon cancer HT-29) [µM]	reduction of cell viability, DAOY (DAOY cells)	IC50 (DAOY cells) [µM]	reduction of cell viability, D425 (D425 cells)	IC50 (D425 cells) [µM]	HUVEC/D425 LD50 Fold Change (D425 cells)	decrease of cell viability, U251 (U251 cells)	IC50 (U251 cells) [µM]	LD50 HUVEC (HUVEC cells [2]) [µM]	LD50 HUVEC (HUVEC cells [3]) [µM]	reduction of cell viability, AKH12 (AKH12 cells)	IC50 (AKH12 cells) [µM]	IC50 (HUH7 cells) [µM]	reduction of cell viability, UW228-2 (UW228-2 cells)	IC50 (UW228-2 cells) [µM]	reduction of cell viability, D283 (D283 cells)	IC50 (D283 cells) [µM]	D425 cell viability as compared to HUVEC cells (D425 cells; dose-response 24 h, Student's t-test, p ≤0.05 / p ≤0.01)	melting point [°C]
CC(c1ccccc1)N1C2CCC(C2)C1CNCCNCC1C2CCC(C2)N1C(C)c1ccccc1 (centres unmarked) [Compound 8]	not sufficient; also recorded: insufficiently soluble	7.2 ± 0.8																		
CC(c1ccccc1)N1C2CCC(C2)C1CNCC1C2CCC(C2)N1C(C)c1ccccc1 (centres unmarked) [Compound 9]	not sufficient; also recorded: insufficiently soluble																			
CC(c1ccccc1)N1CC(NS(=O)(=O)c2ccc(-c3ccccc3)cc2)C2CCC1C2 [Compound 11a, 4-Phenyl-N-((2-((S)-1-phenylethyl)-(1S,4S,5R)-2-azabicyclo[3.2.1]octan-4-yl)benzenesulfonamide]			reduced cell viability	18.7 ± 1.88	reduced cell viability	21.4 ± 0.89	1.01	more than 50%	18.8 ± 2.11	21.71 ± 1.99	13.35 ± 0.25	reduced cell viability below LD50	28.8 ± 1.53	22.5 ± 1.21	reduced cell viability	16 ± 1.03	reduced cell viability	20 ± 2.02		
COc1ccc(-c2ccc(S(=O)(=O)NC3CN(C(C)c4ccccc4)C4CCC3C4)cc2)cc1 [Compound 11e, 4-(4-Methoxyphenyl)-N-((2-((S)-1-phenylethyl)-(1S,4S,5R)-2-azabicyclo[3.2.1]octan-4-yl)benzenesulfonamide]			reduced cell viability	24 ± 1.49	reduced cell viability	17.8 ± 1.04	2.04	more than 50%	23.7 ± 1.69	36.38 ± 4.37	17.58 ± 2.94	reduced cell viability below LD50	28 ± 1.39	30.2 ± 2.21	reduced cell viability	23.5 ± 1.56	reduced cell viability	25.9 ± 1.9	significantly reduced D425 cell viability as compared to HUVEC cells	
CC(c1ccccc1)N1CC(NS(=O)(=O)c2cc(C(F)(F)F)cc(C(F)(F)F)c2)C2CCC1C2 [Compound 11g, 3,5-Bis(trifluoromethyl)-N-((2-((S)-1-phenylethyl)-(1S,4S,5R)-2-azabicyclo[3.2.1]octan-4-yl)benzenesulfonamide]			reduced cell viability	20.4 ± 1.33	reduced cell viability	11.2 ± 1.73	1.42	more than 50%	24.8 ± 0.92	16 ± 2.29	18.68 ± 1.97	reduced cell viability below LD50	28 ± 1.72	20 ± 1.1	reduced cell viability	20.1 ± 1.34	reduced cell viability	17.2 ± 0.89		
Cc1ccc(-c2ccc(S(=O)(=O)N(CCN(CC3C4CCC(C4)N3C(C)c3ccccc3)S(=O)(=O)c3ccc(-c4ccc(C)cc4)cc3)CC3C4CCC(C4)N3C(C)c3ccccc3)cc2)cc1 [Compound 12b, Bis-4’-methyl-N,N-{[(1S,3R,4R)-2-((S)-1-phenylethyl)-2-azabicyclo[2.2.1]heptan-3-yl]methyl}-[1,1'-biphenyl]ethyl-4-sulfonamide]	not sufficient																			120 to 125
CC(c1ccccc1)N1C2CCC(C2)C1CN(CCN(CC1C2CCC(C2)N1C(C)c1ccccc1)S(=O)(=O)c1ccc(-c2ccc(Cl)cc2)cc1)S(=O)(=O)c1ccc(-c2ccc(Cl)cc2)cc1 [Compound 12d, Bis-4’-chloro-N,N-{[(1S,3R,4R)-2-((S)-1-phenylethyl)-2-azabicyclo[2.2.1]heptan-3-yl]methyl}-[1,1'-biphenyl]ethyl-4-sulfonamide]	not sufficient																			252 to 255
CC(=O)Nc1ccc(S(=O)(=O)N(CCN(CC2C3CCC(C3)N2C(C)c2ccccc2)S(=O)(=O)c2ccc(NC(C)=O)cc2)CC2C3CCC(C3)N2C(C)c2ccccc2)cc1 [Compound 12i, Bis-N,N-(4-(N-(((1S,3R,4R)-2-((S)-1-phenylethyl)-2-azabicyclo[2.2.1]heptan-3-yl)methyl)sulfamoyl)ethyl)phenyl)acetamide]			reduced cell viability	12.9 ± 1.59	reduced cell viability	15.6 ± 0.93	0.57	more than 50%	15.3 ± 1.59	8.91 ± 2.11	3.16 ± 0.15	reduced cell viability below LD50	5.75 ± 0.47	7.75 ± 0.84	reduced cell viability	28.4 ± 2.11	reduced cell viability	21.8 ± 1.9		
CC(c1ccccc1)N1C2CCC(C2)C1CN(CC1C2CCC(C2)N1C(C)c1ccccc1)S(=O)(=O)c1ccc(-c2ccccc2)cc1 [Compound 13a, N-Bis-(((1S,3R,4R)-2-((S)-1-phenylethyl)-2-azabicyclo[2.2.1]heptan-3-yl)methyl)-[1,1'-biphenyl]-4-sulfonamide]			reduced cell viability	19.2 ± 1.37	reduced cell viability	30.5 ± 1.86	0.52	more than 50%	27.6 ± 1.04	16 ± 0.79	12.13 ± 0.26	reduced cell viability below LD50	8 ± 0.28	13.9 ± 0.49	reduced cell viability	25.9 ± 1.98	reduced cell viability	38.4 ± 1.11		
N.N.[Cl][Pt][Cl] [cisplatin]		9.7 ± 2																		

— publication PMC7288168, “Synthesis and Cytotoxic Activity of Chiral Sulfonamides Based on the 2-Azabicycloalkane Skeleton” (Molecules, 2020)
